Measurements reported in patent US20110082177A1, “N'-NITROXYALKYLNICOTINAMIDES FOR THE TREATMENT OF CARDIOVASCULAR DISEASES” (priority 2008, published 2011).

Columns and labels:
[1] = Binding to heparin, absorption method; details: compound 100 μM, heparin immobilised on Sepharose 25 mg/ml
Description: The absorption method consisted in comparing the absorption spectrum of an aqueous solution of the tested compound with the absorption spectrum of the same solution after its incubation with Sepharose immobilised heparin as a glycosaminoglycan mimicking the glycosaminoglycan receptor. The absorption spectra were recorded using a Perkin Elmer Lambda 40 spectrophotometer. The following reagents were prepared prior to the experiment: an aqueous solution of the tested compound of Example 1, namely 1-methyl-N′-(2-nitroxyethyl)nicotinamide chloride (MNIC^+Cl^−), at a concentration of 100 μM, an aqueous suspension of heparin immobilised on Sepharose at 25 mg/ml, and a solution of MNIC^+Cl^− in an aqueous suspension of heparin having the same concentrations in both the tested compound and heparin as mentioned above. Following the initial incubation of the solution of the tested compound with heparin, it was centrifuged for 6 minutes at 13,000 rpm. Then supernatant solutions above the precipitate of heparin were separated and the spectra of the solutions were recorded at the wavelength range of 200-600 nm.
The degree of binding of MNIC^+ to heparin was determined by calculating the areas under the absorption curves of the compound before and after contact with heparin, using the following relationship: […]

[2] = Binding to heparin, radiation method (pulse radiolysis); details: water-soluble heparin 10 μM
Description: The experiment consisted in studying the effect of the presence of heparin on the observed rate of scavenging the hydrated electron by the MNIC^+ cation. The studies were carried out by pulse radiolysis, using an Elektronika ELU-6E linear electron accelerator (at the Institute of Applied Radiation Chemistry, Technical University of Lodz, Poland) having an electron beam energy of 6-8 MeV, as an ionising-radiation source. A solution of water-soluble heparin at a concentration of 10 μM was used in the experiment. […]
Based on the recorded kinetic traces of decay of the hydrated electron in the presence of the MNIC^+Cl^− solutions at various concentrations, the values of the pseudo-first order rate constants were determined. The value of the second-order rate constant for the investigated reaction was determined from the slope of the linear dependence of the above-determined rate constants versus concentration. […] Then, based on the determined second-order reaction rate constant and the observed rate constant for decay of the hydrated electron in the presence of heparin and MNIC^+, the degree of binding of the tested compound to heparin was determined using the following relationship: […]

[3] = Scavenging of the hydrated electron by pulse radiolysis; type: physicochemical; details: no heparin added, λ=720 nm
Description: The experiment consisted in studying the effect of the presence of heparin on the observed rate of scavenging the hydrated electron by the MNIC^+ cation. The studies were carried out by pulse radiolysis, using an Elektronika ELU-6E linear electron accelerator (at the Institute of Applied Radiation Chemistry, Technical University of Lodz, Poland) having an electron beam energy of 6-8 MeV, as an ionising-radiation source. A solution of water-soluble heparin at a concentration of 10 μM was used in the experiment. […] Based on the recorded kinetic traces of decay of the hydrated electron in the presence of the MNIC^+Cl^− solutions at various concentrations, the values of the pseudo-first order rate constants were determined. The value of the second-order rate constant for the investigated reaction was determined from the slope of the linear dependence of the above-determined rate constants versus concentration. […] Then, based on the determined second-order reaction rate constant and the observed rate constant for decay of the hydrated electron in the presence of heparin and MNIC^+, the degree of binding of the tested compound to heparin was determined using the following relationship: […]

[4] = test system: isolated rat aorta; assay: Vasodilating effect on phenylephrine contracted isolated rat aortal rings; details: isolated rat aorta with preserved endothelial function; concentrations range from tens to hundreds μmol/l
Description: (§1) The vasodilating effect of MNIC^+Cl^− in aqueous solutions on isolated rat aorta was studied in the conditions close to physiological ones. 3-5 mm aortal rings with preserved endothelial function placed in a set of 6 containers a 5 ml containing the Krebs-Henseleit buffer constantly aerated with 5% CO2 in O2 and thermostated at 37° C. were suspended between two hooks connected to the force transducer for recording the ring contraction. Then, following the constriction induced by phenylephrine, the concentration-dependent vasodilating effect of MNIC^+Cl^− was investigated by measurement of relaxation of phenylephrine contracted aortal rings.

[5] = test system: soluble guanyl cyclase (sGC); assay: Effect of sGC inhibitor ODQ on vasodilatating activity in isolated rat aortal rings
Description: as §1
(§2) The experiments explaining the mechanisms responsible for vasodilation induced by MNIC^+Cl^− were carried out in the same system of isolated vascular vessels. In order to determine the contribution of sGC and KATP channels in the vasodilating activity of the compound, the effects of an inhibitor of ATP-dependent potassium channels—glibenclamide (GLB) at a concentration of 10 μM, and an inhibitor of soluble guanyl cyclase (sGC) 1H-[1,2,4]-oxadiazole[4,3-a]quinoxalin-1-one (ODQ) at a concentration of 10 μM on this vasodilating activity were investigated in two set of experiments. In these experiments, MNIC^+Cl^− was used at the concentrations causing about 80-90% vasodilation, as determined in the experiment described above. […]

[6] = test system: ATP-dependent potassium channels; assay: Effect of potassium channel inhibitor GLB on vasodilatating activity in isolated rat aortal rings
Description: as §1, §2

[7] = Ability to release NO by EPR method; details: preliminary investigations
Description: Preliminary investigations of the ability of MNIC^+Cl^− to release NO were also performed using EPR (Electron Paramagnetic Resonance) method. The results of these studies confirmed that MNIC^+Cl^− releases NO, and most likely the vasodilating activity of the compound is a consequence of the stimulation of sGC by NO thus released.

Row | SMILES | degree of binding to heparin [1] | degree of binding to heparin [2] | second-order rate constant for the reaction of hydrated electron with the MNIC+ cation [3] | vasodilating activity (relaxation of phenylephrine contracted aortal rings) [4] | effect of further addition of ODQ after GLB pre-incubation on vasodilatating activity ([5]; ODQ 10 μM added after GLB 10 μM) | effect of pre-incubation with ODQ on vasodilatating activity ([5]; ODQ 10 μM, MNIC+Cl− at concentrations causing about 80-90% vasodilation) | effect of addition of GLB after ODQ pre-incubation on reversal of the ODQ effect ([6]; GLB 10 μM added after ODQ 10 μM) | effect of pre-incubation with GLB on vasodilatating activity ([6]; GLB 10 μM, MNIC+Cl− at concentrations causing about 80-90% vasodilation) | ability to release NO [7]
1 | C[n+]1cccc(C(=O)NCCO[N+](=O)[O-])c1.[Cl-] [MNIC^+Cl^−, 1-Methyl-N′-(2-nitroxyethyl)nicotinamide chloride] | 30% | 47% | 4.17e+10 to 1e+11 M⁻¹ s⁻¹ | concentration-dependent vasodilating activity | inhibition of vasodilatating activity | inhibited vasodilatating activity | no further influence | had no influence | releases NO
2 | C[n+]1cccc(C(N)=O)c1 [1-methylnicotinamide, reference compound] | 50% | 39% | – | – | – | – | – | – | –
